Results: ChEMBL document CHEMBL1255299, “Killing of Neisseria gonorrhoeae, Streptococcus agalactiae (group B streptococcus), Haemophilus ducreyi, and vaginal Lactobacillus by 3-O-octyl-sn-glycerol” (2008)
The source made the active and inactive calls. The calls are words filed in the database; no cut-off is given here.

What was measured:
Streptococcus agalactiae [1] = assay: Microbicidal activity against Streptococcus agalactiae serotype IV after 30 mins; assay type: functional; conditions: 0.5 h
Lactobacillus crispatus [2] = assay: Antimicrobial activity against Lactobacillus crispatus ATCC 20225 at 4.4 mM in presence of 0.6 mM human serum albumin; assay type: functional
Lactobacillus crispatus [3] = assay: Antimicrobial activity against Lactobacillus crispatus ATCC 33197 at 4.4 mM in presence of 0.6 mM human serum albumin; assay type: functional
Lactobacillus crispatus [4] = assay: Antimicrobial activity against Lactobacillus crispatus ATCC 33197 at 4.4 mM in presence of 0.1 mM human serum albumin; assay type: functional
Neisseria gonorrhoeae [5] = assay: Microbicidal activity against Neisseria gonorrhoeae ATCC 49226 after 30 mins; assay type: functional; conditions: ATCC 49226, 0.5 h
Neisseria gonorrhoeae [6] = assay: Antimicrobial activity against Neisseria gonorrhoeae ATCC 49226 at 4.4 mM in presence of 0.05 mM human serum albumin; assay type: functional, organism-based
Pseudomonas aeruginosa [7] = assay: Antimicrobial activity against Pseudomonas aeruginosa at 4.4 mM in presence of 0.6 mM delipidated human serum albumin; assay type: functional, organism-based
Streptococcus agalactiae [8] = assay: Microbicidal activity against Streptococcus agalactiae serotype 1B after 30 mins; assay type: functional; conditions: 0.5 h
Neisseria gonorrhoeae [9] = assay: Antimicrobial activity against Neisseria gonorrhoeae ATCC 49226 at 4.4 mM in presence of 0.7 mM human serum albumin; assay type: functional, organism-based
Pseudomonas aeruginosa [10] = assay: Antimicrobial activity against Pseudomonas aeruginosa at 4.4 mM in presence of 0.6 mM human serum albumin; assay type: functional, organism-based
Lactobacillus crispatus [11] = assay: Antimicrobial activity against Lactobacillus crispatus ATCC 33197 at 4.4 mM in presence of 0.5 mM human serum albumin; assay type: functional
Neisseria gonorrhoeae [12] = assay: Antimicrobial activity against Neisseria gonorrhoeae ATCC 49226 at 4.4 mM in presence of 0.4 mM human serum albumin; assay type: functional, organism-based
Pseudomonas aeruginosa [13] = assay: Antimicrobial activity against Pseudomonas aeruginosa at 4.4 mM in presence of 0.3 mM delipidated human serum albumin; assay type: functional, organism-based
Pseudomonas aeruginosa [14] = assay: Antimicrobial activity against Pseudomonas aeruginosa at 4.4 mM in presence of 0.1 mM human serum albumin; assay type: functional, organism-based
Lactobacillus crispatus [15] = assay: Antimicrobial activity against Lactobacillus crispatus ATCC 20225 at 4.4 mM in presence of 0.5 mM human serum albumin; assay type: functional
Lactobacillus jensenii [16] = assay: Antimicrobial activity against Lactobacillus jensenii ATCC 25258 at 4.4 mM in presence of 0.7 mM human serum albumin; assay type: functional
Neisseria gonorrhoeae [17] = assay: Antimicrobial activity against Neisseria gonorrhoeae ATCC 49226 at 4.4 mM in presence of 0.6 mM human serum albumin; assay type: functional, organism-based
Lactobacillus jensenii [18] = assay: Antimicrobial activity against Lactobacillus jensenii ATCC 25258 at 4.4 mM in presence of 0.1 mM human serum albumin; assay type: functional
Lactobacillus crispatus [19] = assay: Antimicrobial activity against Lactobacillus crispatus ATCC 20225 at 4.4 mM in presence of 0.2 mM human serum albumin; assay type: functional
Streptococcus agalactiae [20] = assay: Microbicidal activity against Streptococcus agalactiae serotype 1A after 30 mins; assay type: functional; conditions: serotype IA, 0.5 h
Pseudomonas aeruginosa [21] = assay: Antimicrobial activity against Pseudomonas aeruginosa at 4.4 mM in presence of 0.2 mM human serum albumin; assay type: functional, organism-based
Lactobacillus crispatus [22] = assay: Antimicrobial activity against Lactobacillus crispatus ATCC 33197 at 4.4 mM in presence of 0.4 mM human serum albumin; assay type: functional
Lactobacillus crispatus [23] = assay: Antimicrobial activity against Lactobacillus crispatus ATCC 20225 at 4.4 mM in presence of 0.05 mM human serum albumin; assay type: functional
Streptococcus agalactiae [24] = assay: Microbicidal activity against Streptococcus agalactiae serotype V after 30 mins; assay type: functional; conditions: 0.5 h
Lactobacillus crispatus [25] = assay: Antimicrobial activity against Lactobacillus crispatus ATCC 20225 at 4.4 mM in presence of 0.3 mM human serum albumin; assay type: functional
Lactobacillus crispatus [26] = assay: Antimicrobial activity against Lactobacillus crispatus ATCC 20225 at 4.4 mM in presence of 0.1 mM human serum albumin; assay type: functional
Lactobacillus vaginalis = assay: Microbicidal activity against Lactobacillus vaginalis after 30 mins; assay type: functional
Neisseria gonorrhoeae [27] = assay: Antimicrobial activity against Neisseria gonorrhoeae ATCC 49226 at 4.4 mM in presence of 0.5 mM human serum albumin; assay type: functional, organism-based
Lactobacillus jensenii [28] = assay: Antimicrobial activity against Lactobacillus jensenii ATCC 25258 at 4.4 mM in presence of 0.4 mM human serum albumin; assay type: functional
Lactobacillus jensenii [29] = assay: Microbicidal activity against Lactobacillus jensenii after 30 mins; assay type: functional; conditions: 0.5 h
Neisseria gonorrhoeae [30] = assay: Microbicidal activity against Neisseria gonorrhoeae ATCC 19424 after 30 mins; assay type: functional; conditions: ATCC 19424, 0.5 h
Lactobacillus crispatus [31] = assay: Microbicidal activity against Lactobacillus crispatus after 30 mins; assay type: functional; conditions: 0.5 h
Lactobacillus crispatus [32] = assay: Antimicrobial activity against Lactobacillus crispatus ATCC 33197 at 4.4 mM in presence of 0.05 mM human serum albumin; assay type: functional
Lactobacillus crispatus [33] = assay: Antimicrobial activity against Lactobacillus crispatus ATCC 33197 at 4.4 mM in presence of 0.7 mM human serum albumin; assay type: functional
Lactobacillus iners = assay: Microbicidal activity against Lactobacillus iners after 30 mins; assay type: functional
Lactobacillus crispatus [34] = assay: Antimicrobial activity against Lactobacillus crispatus ATCC 20225 at 4.4 mM in presence of 0.4 mM human serum albumin; assay type: functional
Streptococcus agalactiae [35] = assay: Microbicidal activity against Streptococcus agalactiae serotype II after 30 mins; assay type: functional; conditions: 0.5 h
Pseudomonas aeruginosa [36] = assay: Antimicrobial activity against Pseudomonas aeruginosa at 4.4 mM in presence of 0.4 mM delipidated human serum albumin; assay type: functional, organism-based
Neisseria gonorrhoeae [37] = assay: Antimicrobial activity against Neisseria gonorrhoeae ATCC 49226 at 4.4 mM in presence of 0.1 mM human serum albumin; assay type: functional, organism-based
Neisseria gonorrhoeae [38] = assay: Antimicrobial activity against Neisseria gonorrhoeae ATCC 49226 at 4.4 mM in presence of 0.3 mM human serum albumin; assay type: functional, organism-based
[Haemophilus] ducreyi = Microbicidal activity against Haemophilus ducreyi after 30 mins; assay type: functional; conditions: 0.5 h
Pseudomonas aeruginosa [39] = assay: Antimicrobial activity against Pseudomonas aeruginosa at 4.4 mM in presence of 0.5 mM human serum albumin; assay type: functional, organism-based
Streptococcus agalactiae [40] = assay: Microbicidal activity against Streptococcus agalactiae serotype III after 30 mins; assay type: functional; conditions: 0.5 h
Lactobacillus crispatus [41] = assay: Antimicrobial activity against Lactobacillus crispatus ATCC 20225 at 4.4 mM in presence of 0.7 mM human serum albumin; assay type: functional
Lactobacillus crispatus [42] = assay: Antimicrobial activity against Lactobacillus crispatus ATCC 33197 at 4.4 mM in presence of 0.3 mM human serum albumin; assay type: functional
Lactobacillus jensenii [43] = assay: Antimicrobial activity against Lactobacillus jensenii ATCC 25258 at 4.4 mM in presence of 0.05 mM human serum albumin; assay type: functional
Lactobacillus jensenii [44] = assay: Antimicrobial activity against Lactobacillus jensenii ATCC 25258 at 4.4 mM in presence of 0.5 mM human serum albumin; assay type: functional
Pseudomonas aeruginosa [45] = assay: Antimicrobial activity against Pseudomonas aeruginosa at 4.4 mM in presence of 0.1 mM delipidated human serum albumin; assay type: functional, organism-based
Lactobacillus crispatus [46] = assay: Antimicrobial activity against Lactobacillus crispatus ATCC 33197 at 4.4 mM in presence of 0.2 mM human serum albumin; assay type: functional
Lactobacillus jensenii [47] = assay: Antimicrobial activity against Lactobacillus jensenii ATCC 25258 at 4.4 mM in presence of 0.2 mM human serum albumin; assay type: functional
Neisseria gonorrhoeae [48] = assay: Antimicrobial activity against Neisseria gonorrhoeae ATCC 49226 at 4.4 mM in presence of 0.2 mM human serum albumin; assay type: functional, organism-based
Lactobacillus jensenii [49] = assay: Antimicrobial activity against Lactobacillus jensenii ATCC 25258 at 4.4 mM in presence of 0.6 mM human serum albumin; assay type: functional
Pseudomonas aeruginosa [50] = assay: Antimicrobial activity against Pseudomonas aeruginosa at 4.4 mM in presence of 0.4 mM human serum albumin; assay type: functional, organism-based
Pseudomonas aeruginosa [51] = assay: Antimicrobial activity against Pseudomonas aeruginosa at 4.4 mM in presence of 0.3 mM human serum albumin; assay type: functional, organism-based
Pseudomonas aeruginosa [52] = assay: Antimicrobial activity against Pseudomonas aeruginosa at 4.4 mM in presence of 0.2 mM delipidated human serum albumin; assay type: functional, organism-based
Pseudomonas aeruginosa [53] = assay: Antimicrobial activity against Pseudomonas aeruginosa at 4.4 mM in presence of 0.5 mM delipidated human serum albumin; assay type: functional, organism-based
Lactobacillus jensenii [54] = assay: Antimicrobial activity against Lactobacillus jensenii ATCC 25258 at 4.4 mM in presence of 0.3 mM human serum albumin; assay type: functional

CCCCCCCCOC[C@H](O)CO
MCC (Streptococcus agalactiae [1]): 5 mM
Activity (Lactobacillus crispatus [2]): inactive
Activity (Lactobacillus crispatus [3]): inactive
Activity (Lactobacillus crispatus [4]): Active
MCC (Neisseria gonorrhoeae [5]): 2.5 mM
Activity (Neisseria gonorrhoeae [6]): Active
Activity (Pseudomonas aeruginosa [7]): inactive
MCC (Streptococcus agalactiae [8]): 5 mM
Activity (Neisseria gonorrhoeae [9]): inactive
Activity (Pseudomonas aeruginosa [10]): inactive
Activity (Lactobacillus crispatus [11]): inactive
Activity (Neisseria gonorrhoeae [12]): Active
Activity (Pseudomonas aeruginosa [13]): inactive
Activity (Pseudomonas aeruginosa [14]): Active
Activity (Lactobacillus crispatus [15]): inactive
Activity (Lactobacillus jensenii [16]): inactive
Activity (Neisseria gonorrhoeae [17]): Active
Activity (Lactobacillus jensenii [18]): Active
Activity (Lactobacillus crispatus [19]): Active
MCC (Streptococcus agalactiae [20]): 5 mM
Activity (Pseudomonas aeruginosa [21]): Active
Activity (Lactobacillus crispatus [22]): inactive
Activity (Lactobacillus crispatus [23]): Active
MCC (Streptococcus agalactiae [24]): 5 mM
Activity (Lactobacillus crispatus [25]): inactive
Activity (Lactobacillus crispatus [26]): Active
MCC (Lactobacillus vaginalis): > 10 mM
Activity (Neisseria gonorrhoeae [27]): Active
Activity (Lactobacillus jensenii [28]): inactive
MCC (Lactobacillus jensenii [29]): 5 mM
MCC (Neisseria gonorrhoeae [30]): 2.5 mM
MCC (Lactobacillus crispatus [31]): 5 mM
Activity (Lactobacillus crispatus [32]): Active
Activity (Lactobacillus crispatus [33]): inactive
MCC (Lactobacillus iners): 5 mM
Activity (Lactobacillus crispatus [34]): inactive
MCC (Streptococcus agalactiae [35]): 5 mM
Activity (Pseudomonas aeruginosa [36]): inactive
Activity (Neisseria gonorrhoeae [37]): Active
Activity (Neisseria gonorrhoeae [38]): Active
MCC ([Haemophilus] ducreyi): 1.25 mM
Activity (Pseudomonas aeruginosa [39]): inactive
MCC (Streptococcus agalactiae [40]): 5 mM
Activity (Lactobacillus crispatus [41]): inactive
Activity (Lactobacillus crispatus [42]): inactive
Activity (Lactobacillus jensenii [43]): Active
Activity (Lactobacillus jensenii [44]): inactive
Activity (Pseudomonas aeruginosa [45]): Active
Activity (Lactobacillus crispatus [46]): Active
Activity (Lactobacillus jensenii [47]): Active
Activity (Neisseria gonorrhoeae [48]): Active
Activity (Lactobacillus jensenii [49]): inactive
Activity (Pseudomonas aeruginosa [50]): Active
Activity (Pseudomonas aeruginosa [51]): Active
Activity (Pseudomonas aeruginosa [52]): inactive
Activity (Pseudomonas aeruginosa [53]): inactive
Activity (Lactobacillus jensenii [54]): Active

CCCCCCCCOC[C@@H](O)CO
MCC (Neisseria gonorrhoeae [5]): 2.5 mM
MCC (Lactobacillus jensenii [29]): 3 mM
MCC (Neisseria gonorrhoeae [30]): 2.5 mM
MCC (Lactobacillus crispatus [31]): 5 mM
MCC (Lactobacillus iners): 4 mM
